# Results from ChEMBL document CHEMBL1201862, “PubChem BioAssay data set” (2004).
# Calls of active or inactive are those of the source.
# Columns and labels:
# [1] = molecular target: Sphingosine 1-phosphate receptor 2 (Homo sapiens, UniProt O95136); experiment: Dose Response Cell Based Assay for Antagonists of the S1P2 Receptor. [Related pubchem assays: 856, 736 ]; assay type: functional
# [2] = viability loss in CEM21 cells – cell-based, CellTiter-Glo luminescence, cherry-picked, cytotoxicity control for viral fusion inhibitor project, dose response (AID 652042); assay type: functional;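 further: potency for signal decrease meaning cytotoxicity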
# [3] = HIV-1 AD8 envelope cell-cell fusion blockers – cherry-pick, dose response (AID 652062); assay type: functional, cell-based;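 further: luciferase signal from cell-cell fusion driven by HIV-1 clade B AD8 Env; potency is for inhibitors of fusion seen as a drop in luminescence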
# Nonstructural protein 1 = Nonstructural protein 1 (Influenza A virus, UniProt Q194T2); assay type: functional, Influenza A virus (A/California/07/2009(H1N1))
# Nonstructural protein 1, sequence (Q194T2 whole entry): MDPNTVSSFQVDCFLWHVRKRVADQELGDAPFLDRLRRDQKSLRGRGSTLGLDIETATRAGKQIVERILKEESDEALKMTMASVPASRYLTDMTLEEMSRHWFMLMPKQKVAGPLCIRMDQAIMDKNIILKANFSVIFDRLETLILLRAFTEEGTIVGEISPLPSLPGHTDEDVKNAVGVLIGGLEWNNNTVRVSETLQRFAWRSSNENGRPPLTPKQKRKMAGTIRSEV
# [4] = fluconazole-exposed Candida albicans growth modulators – fluorescence, retest, confirmation (AID 2467); assay type: functional, cell-based
# Melanocortin receptor 4 = Melanocortin receptor 4 (Homo sapiens, UniProt P32245); experiment: inhibitors of MC4R cAMP signaling – cell-based, TR-FRET, biased antagonists, dose response (AID 602298); assay type: functional;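 further: antagonist potency against agonist-stimulated cAMP production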
# Melanocortin receptor 4, sequence (P32245 whole entry): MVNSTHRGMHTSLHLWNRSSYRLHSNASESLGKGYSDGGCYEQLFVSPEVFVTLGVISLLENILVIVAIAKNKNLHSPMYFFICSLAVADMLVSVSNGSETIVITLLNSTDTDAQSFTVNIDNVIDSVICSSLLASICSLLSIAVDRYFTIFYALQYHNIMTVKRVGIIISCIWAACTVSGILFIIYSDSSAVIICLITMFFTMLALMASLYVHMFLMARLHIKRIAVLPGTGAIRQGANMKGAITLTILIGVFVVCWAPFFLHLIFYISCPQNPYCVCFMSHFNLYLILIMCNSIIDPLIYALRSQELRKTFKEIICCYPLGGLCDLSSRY
# [5] = molecular target: Protein-tyrosine kinase 2-beta (Homo sapiens, UniProt Q14289);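 further: potency of inhibitors of PYK2 kinase phosphorylation of poly-GT substrate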
# Protein-tyrosine kinase 2-beta, sequence (Q14289 whole entry): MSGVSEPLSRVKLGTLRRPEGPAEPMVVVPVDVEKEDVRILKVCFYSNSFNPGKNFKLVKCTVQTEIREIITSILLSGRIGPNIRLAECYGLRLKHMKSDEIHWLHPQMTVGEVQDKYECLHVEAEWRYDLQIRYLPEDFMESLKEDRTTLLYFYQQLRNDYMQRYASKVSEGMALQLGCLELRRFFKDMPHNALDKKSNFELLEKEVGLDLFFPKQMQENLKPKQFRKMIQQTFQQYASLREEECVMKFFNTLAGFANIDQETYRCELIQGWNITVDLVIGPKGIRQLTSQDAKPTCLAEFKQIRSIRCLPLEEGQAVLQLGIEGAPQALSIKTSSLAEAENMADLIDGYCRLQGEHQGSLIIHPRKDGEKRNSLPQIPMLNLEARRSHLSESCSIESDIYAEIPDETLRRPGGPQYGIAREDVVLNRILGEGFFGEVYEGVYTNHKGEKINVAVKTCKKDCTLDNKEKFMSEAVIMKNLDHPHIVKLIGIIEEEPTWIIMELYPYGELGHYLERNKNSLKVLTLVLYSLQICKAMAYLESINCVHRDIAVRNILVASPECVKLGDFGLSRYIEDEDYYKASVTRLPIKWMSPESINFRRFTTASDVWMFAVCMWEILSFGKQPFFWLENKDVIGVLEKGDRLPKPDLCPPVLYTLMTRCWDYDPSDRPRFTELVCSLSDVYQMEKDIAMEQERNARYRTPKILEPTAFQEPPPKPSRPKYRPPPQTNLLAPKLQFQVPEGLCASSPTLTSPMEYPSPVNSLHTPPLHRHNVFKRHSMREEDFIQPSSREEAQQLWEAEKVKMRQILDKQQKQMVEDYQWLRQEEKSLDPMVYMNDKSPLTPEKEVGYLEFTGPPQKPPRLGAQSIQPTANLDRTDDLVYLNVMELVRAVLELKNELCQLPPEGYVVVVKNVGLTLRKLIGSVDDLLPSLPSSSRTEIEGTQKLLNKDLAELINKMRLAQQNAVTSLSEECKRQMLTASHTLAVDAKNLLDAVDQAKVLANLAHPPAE
# [6] = cAMP pathway inhibition in counterscreen cell line – TR-FRET cAMP detection, counter-screen for MC4R biased antagonist project, dose response (AID 602305); assay type: functional, cell-based;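 further: U2OS cells stimulated with forskolin near its EC80 as the cAMP inducer; potency is for inhibition of forskolin-stimulated cAMP signaling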
# [7] = NIH-3T3 fibroblast cytotoxicity, dose response, cytotoxicity control, cell-based, fluorescence, Alamar Blue, secondary assay (AID 2327); assay type: functional;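 further: NIH-3T3 mouse fibroblasts cultured with fluconazole at 8 µg/mL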
# [8] = blockers of HIV-1 ZM109 envelope-driven cell-cell fusion – HeLa effector, CEM target cells, luciferase, cherry-pick, dose response (AID 652058); assay type: functional, cell-based;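 further: luciferase signal from HIV-1 Env mediated cell-cell fusion of effector and target cells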
# [9] = blockers of HIV-1 envelope-mediated cell-cell fusion – cherry-pick, dose response (AID 652057); assay type: functional, cell-based
# [10] = A549 lung cell viability reduction – CellTiter-Glo luminescence, cherry-pick, cytotoxicity control, dose response (AID 743484); assay type: functional, cell-based
# [11] = ATP-based viability loss in HEK293T cells – cell-based, CellTiter-Glo luminescence, cherry-picked samples, set 4, cytotoxicity control, dose response (AID 743441); assay type: functional; details: HEK293
# INS1 = experiment: INS-1E survival protection against cytokine death – cell-based, luminescence, retest, dose response (AID 449756); assay type: functional; details: Rattus norvegicus;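 further: cell death triggered by IL-1 beta plus TNF-alpha plus IFN-gamma mixture; protective hits raise ATP signal compared with cytokine alone wells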
# [12] = Trypanosoma cruzi growth suppression in host cells – NIH3T3 host cells, beta-gal luminescence, confirmation (AID 2044); assay type: functional, cell-based;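 further: intracellular parasites grown in NIH/3T3 mouse fibroblasts as host cells; luminescent beta-galactosidase reporter signal from transgenic T. cruzi replicating inside host cells; inhibitors lower the luminescence signal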
# [13] = microbe, parasite or virus in culture; assay type: functional; details: Mycobacterium tuberculosis
# cells [14] = experiment: cells
# [15] = NIH3T3 cell viability loss – ATP luminescence, mouse fibroblasts, counter-screen, dose response (AID 2010); assay type: functional, cell-based;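 further: cells exposed to compound for about 90 hours before reading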
# [16] = toxicity toward immortalized ovarian surface epithelium – cell-based, plate reader, dry powder samples, cytotoxicity control for PAX8 inhibitor project, dose response (AID 743045); assay type: functional
# [17] = OVCAR8 cell viability loss – plate reader, dry powder samples, PAX8 project, dose response (AID 743197); assay type: functional, cell-based; details: OVCAR-8
# [18] = general cell-killing toxicity readout – plate reader, dry powder samples, cytotoxicity control for PAX8 inhibitor project, dose response (AID 743021); assay type: functional, cell-based
# [19] = OVCAR-3 cell viability loss – plate reader, dry powder samples, PAX8 inhibitor project, dose response (AID 743044); assay type: functional, cell-based
# Paired box protein Pax-8 = Paired box protein Pax-8 (Homo sapiens, UniProt Q06710); experiment: PAX8 transcriptional activity inhibition in RMG-I – RMG-I cells, luciferase, cherry-pick, dose response (AID 687027); assay type: functional, cell-based;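 further: luciferase reporter driven by Pax8 target thyroperoxidase promoter measured by SteadyGlo luminescence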
# Paired box protein Pax-8, sequence (Q06710 whole entry): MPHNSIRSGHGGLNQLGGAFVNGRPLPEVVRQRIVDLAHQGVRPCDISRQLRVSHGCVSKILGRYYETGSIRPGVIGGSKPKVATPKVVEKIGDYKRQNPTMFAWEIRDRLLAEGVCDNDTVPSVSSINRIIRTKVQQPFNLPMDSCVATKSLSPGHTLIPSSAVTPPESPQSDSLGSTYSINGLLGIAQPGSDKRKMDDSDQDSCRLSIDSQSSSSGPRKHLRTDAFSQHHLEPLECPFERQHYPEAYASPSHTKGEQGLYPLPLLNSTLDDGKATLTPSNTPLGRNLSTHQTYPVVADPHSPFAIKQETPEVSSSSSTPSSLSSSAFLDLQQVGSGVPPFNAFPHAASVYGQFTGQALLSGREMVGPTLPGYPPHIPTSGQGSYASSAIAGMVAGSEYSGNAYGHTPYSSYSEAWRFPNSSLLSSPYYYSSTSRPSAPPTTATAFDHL
# cells [20] = assay type: functional, cell-based
# [21] = molecular target: T1, Nuclear receptor subfamily 0 group B member 1 (Homo sapiens, UniProt P51843); assay type: functional, cell-based;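 further: HEK293T cells transfected with SF-1 and DAX-1 plus StAR promoter luciferase reporter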
# T1 sequence (P51843 whole entry): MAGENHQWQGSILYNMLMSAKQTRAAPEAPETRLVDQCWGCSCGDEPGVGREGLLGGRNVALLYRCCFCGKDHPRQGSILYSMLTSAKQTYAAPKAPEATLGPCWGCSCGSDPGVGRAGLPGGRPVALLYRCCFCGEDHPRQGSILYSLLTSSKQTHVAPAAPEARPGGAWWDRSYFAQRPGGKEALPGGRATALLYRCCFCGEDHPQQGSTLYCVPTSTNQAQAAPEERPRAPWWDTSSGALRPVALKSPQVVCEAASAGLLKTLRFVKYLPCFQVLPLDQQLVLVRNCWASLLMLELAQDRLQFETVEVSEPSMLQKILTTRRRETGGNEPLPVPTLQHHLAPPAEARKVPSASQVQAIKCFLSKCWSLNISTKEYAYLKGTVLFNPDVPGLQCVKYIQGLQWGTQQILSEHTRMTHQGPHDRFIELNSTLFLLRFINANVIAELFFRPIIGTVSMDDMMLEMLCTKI
# [22] = Luminescence Cell-Based Dose Confirmation to Identify Activators of 5'UTR Stem-Loop Driven Alpha-Synuclein mRNA Translation in H4 Neuroglioblastoma Cells. [Related pubchem assays: 1829 (Project Summary), 1814 (Primary HTS)]; assay type: functional
# [23] = Luminescence Cell-Based Dose Response to Identify Activators of 5'UTR Stem-Loop Driven Prion Protein mRNA Translation in H4-C Neuroglioblastoma Cells. [Related pubchem assays: 1829 (Project Summary), 1814 (Primary HTS)]; assay type: functional
# [24] = Luminescence Cell-Based Dose Response HTS to Identify Activators of Luciferase Translation or Activity in H4 […] Cells. [Related pubchem assays: 1829 (Project Summary), 1814 (Primary HTS)]; assay type: functional
# H4 = experiment: Luminescence Cell-Based Dose Response HTS to Identify Activators of 5'UTR Stem-Loop Driven Prion Protein mRNA Translation in H4 Neuroglioblastoma Cells. [Related pubchem assays: 1829 (Project Summary), 1814 (Primary HTS)]; assay type: functional; details: Homo sapiens
# [25] = Luminescence Cell-Based Dose Response to Identify Activators of Luciferase Translation or Activity in H4-C Neuroglioblastoma Cells. [Related pubchem assays: 1829 (Project Summary), 1814 (Primary HTS)]; assay type: functional
# [26] = molecular target: COUP transcription factor 2 (Homo sapiens, UniProt P24468); experiment: Luminescence-based cell-based high throughput dose response assay to identify inhibitors of COUP-TFII (NR2F2).; assay type: functional;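 further: HEK293 cells transiently cotransfected with COUP-TFII expression vector and reporter; luciferase reporter luminescence driven by COUP-TFII from the pX2-168 reporter plasmid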
# COUP transcription factor 2, sequence (P24468 whole entry): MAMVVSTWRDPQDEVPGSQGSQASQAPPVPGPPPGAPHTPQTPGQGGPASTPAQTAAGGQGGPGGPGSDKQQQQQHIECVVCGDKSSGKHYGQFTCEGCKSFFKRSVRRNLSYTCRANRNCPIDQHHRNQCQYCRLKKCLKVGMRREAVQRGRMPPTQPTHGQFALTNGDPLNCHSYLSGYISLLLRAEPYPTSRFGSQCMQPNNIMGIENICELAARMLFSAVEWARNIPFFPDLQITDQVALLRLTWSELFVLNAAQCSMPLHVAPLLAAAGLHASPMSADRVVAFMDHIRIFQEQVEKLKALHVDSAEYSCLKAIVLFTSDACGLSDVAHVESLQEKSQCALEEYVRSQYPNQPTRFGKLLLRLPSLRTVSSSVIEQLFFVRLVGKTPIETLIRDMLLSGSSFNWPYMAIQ
# Sphingosine 1-phosphate receptor 2, sequence (O95136 whole entry, the tested form may be a part): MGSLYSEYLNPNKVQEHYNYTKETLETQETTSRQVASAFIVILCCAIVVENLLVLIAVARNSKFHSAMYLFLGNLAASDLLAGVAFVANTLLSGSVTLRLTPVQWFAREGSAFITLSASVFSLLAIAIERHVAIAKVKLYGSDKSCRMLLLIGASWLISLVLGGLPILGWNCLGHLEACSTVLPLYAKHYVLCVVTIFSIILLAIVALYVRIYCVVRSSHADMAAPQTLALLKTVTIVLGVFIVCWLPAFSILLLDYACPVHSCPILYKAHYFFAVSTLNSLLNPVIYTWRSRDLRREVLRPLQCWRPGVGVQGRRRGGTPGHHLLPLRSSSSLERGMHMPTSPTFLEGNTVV
compound,measurement,setting,value
COC(=O)c1sc2cc(C(F)(F)F)cnc2c1-c1ccccn1,IC50,[1],> 30 µM (not active)
N#C[C@@H]1[C@H](c2ccc(-c3cccc(F)c3)cc2)[C@H](CO)N1C(=O)c1cccnc1,AC50,[2],57.4 µM (active)
same,AC50,[3],3.62 µM (active)
CCOC(=O)c1cnc2ccc(C)cc2c1Nc1ccc(N2CCOCC2)cc1,IC50,Nonstructural protein 1,30.7 µM (active)
same,EC50,[4],1.75 µM (active)
same,IC50,Melanocortin receptor 4,19 µM (inactive)
same,IC50,[5],47.7 µM (not active)
same,IC50,[6],> 64.6 µM (inactive)
same,EC50,[7],41.5 µM (active)
COc1ccc(C(=O)Nc2nc(-c3ccc(S(=O)(=O)N4CCOCC4)cc3)cs2)cc1,AC50,[2],40.3 µM (active)
same,AC50,[8],0.664 µM (active)
same,AC50,[3],7.62 µM (active)
same,AC50,[9],63.4 µM (active)
COc1cc2c(cc1[N+](=O)[O-])-c1ccc([N+](=O)[O-])cc1C2,AC50,[10],12.4 µM (active)
same,AC50,[11],26.7 µM (active)
COc1ccc(-c2cc3ccccc3oc2=O)cc1NC(=O)c1ccc([N+](=O)[O-])o1,AC50,INS1,10.7 µM (active)
same,EC50,[12],< 0.1 µM (active)
same,CC50,[13],> 40 µM (active)
same,EC50,cells [14],0.262 µM (active)
same,EC50,[15],9.47 µM (active)
C[C@H](CO)N1C[C@H](C)[C@@H](CN(C)S(=O)(=O)c2ccc(Cl)cc2)OCCCC[C@H](C)Oc2ccc(NS(=O)(=O)c3cccs3)cc2C1=O,AC50,[16],12.7 µM (active)
same,AC50,[17],24.5 µM (active)
same,AC50,[18],21.4 µM (active)
same,AC50,[19],15 µM (active)
same,AC50,Paired box protein Pax-8,4.18 µM (active)
Cc1cccc(N2CCN(C(=O)c3[nH]c(C(F)(F)F)nc3-c3ccccc3)CC2)c1C,IC50,cells [20],> 67.5 µM (inactive)
same,IC50,[21],> 67.5 µM (inactive)
O=C(Nc1cccnc1)c1cc(-c2cc(Cl)ccc2O)n[nH]1,EC50,[22],0.439 µM (active)
same,EC50,[23],> 12 µM (not active)
same,EC50,[24],6.15 µM (active)
same,EC50,H4,0.608 µM (active)
same,EC50,[25],0.56 µM (active)
CCNc1nc(-c2sc(NC(=O)C(C)(C)C)nc2C)c(-n2cc(-c3ccccc3)nn2)s1,IC50,[26],10.7 µM (inactive)
